The record followed here is patent US7238813B2, “Chemical compounds” (Smithkline Beecham Corporation, priority 2000, dated 2007).

Each structure is given as a SMILES string. pIC50: −log10 of the molar value. Structures can show the parent of a compound that is named as a salt. Where only a bound is given, the exact number is not on record here.

One assay deals with T1, GST-VEGFR2 (Homo sapiens, UniProt P35968).
T1 construct: GST-VEGFR2, baculovirus expressed recombinant constructs of the intracellular domains of human TIE2 tagged by GST; made in house
T1 sequence (P35968 786-1356 limits assumed): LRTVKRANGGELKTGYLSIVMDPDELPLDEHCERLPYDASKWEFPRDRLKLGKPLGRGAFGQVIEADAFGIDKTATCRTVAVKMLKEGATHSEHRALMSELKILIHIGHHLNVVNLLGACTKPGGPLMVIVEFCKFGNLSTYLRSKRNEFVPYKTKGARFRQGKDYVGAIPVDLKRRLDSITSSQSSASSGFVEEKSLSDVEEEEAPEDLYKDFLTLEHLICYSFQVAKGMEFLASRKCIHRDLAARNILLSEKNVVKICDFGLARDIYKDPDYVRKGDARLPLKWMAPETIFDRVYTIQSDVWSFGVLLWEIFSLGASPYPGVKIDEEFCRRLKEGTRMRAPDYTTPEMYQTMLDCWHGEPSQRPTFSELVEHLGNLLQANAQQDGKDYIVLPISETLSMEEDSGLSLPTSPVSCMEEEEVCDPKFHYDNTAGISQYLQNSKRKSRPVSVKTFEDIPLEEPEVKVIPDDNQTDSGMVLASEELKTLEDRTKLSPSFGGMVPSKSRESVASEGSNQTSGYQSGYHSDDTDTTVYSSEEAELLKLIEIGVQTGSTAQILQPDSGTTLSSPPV
The assay is described as follows: VEGF-R2 enzyme assay (VEGF-E), LANCE method. The settings on record: 75 μM ATP. It counts as biochemical. (In general: TR-FRET usually uses a lanthanide donor and a delayed reading to cut background.)

Assay [1] addresses T2, TIE2 intracellular domain/c-fms extracellular domain (TIE2/c-fms) chimeric protein expressing mouse 3T3 cells (Homo sapiens, UniProt Q02763).
T2 construct: a TIE2 intracellular domain/c-fms extracellular domain (TIE2/c-fms) chimeric protein; expressed in transfected cells; host or cells: mouse 3T3 cells
The assay is described as follows: TIE-2 autophosphorylation assay (TIE2-C), ELISA. It counts as cell-based. The settings on record: TIE2/c-fms 3T3 cells, MCSF activation. The procedure: TIE-2 Autophosphorylation Assay (TIE2-C)
The TIE-2 autophosphorylation assay used an ELISA method and a TIE2 intracellular domain/c-fms extracellular domain (TIE2/c-fms) chimeric protein expressing mouse 3T3 cells. This assay measured the autophosphorylation level of TIE2 protein expressed in cells. The cells were cultured in high glucose DMEM (Sigma) containing 10% serum at 37° C. in a humidified 10% CO2, 90% air incubator. The test compound (diluted from a 10 mM stock in DMSO, final DMSO concentration was 0.1%) was incubated with TIE2/c-fms expressing cells for 1 hr in serum free DMEM in 96 well plates followed by the activation of TIE2/c-fms receptor using c-fms ligand, MCSF (macrophage colony stimulating factor). The culture media was removed by aspiration and the cells incubated for at least 30 mins on ice with lysis buffer containing 137 mM NaCl, 2 mM EDTA, 10% glycerol, […] sodium ortho vanadate and complete protease inhibitor cocktail (Roche) in 20 mM Tris-HCl (pH8.0). The cell extracts were transferred into Rat anti-c-fms antibody coated 96 well plates and incubated for 12 hrs at 4° C. The extracts were removed by aspiration and the plate was incubated with biotinylated anti-phosphotyrosine antibody, PT66 (Sigma) and then with HRP (Horseradish Peroxidase)-labeled streptavidin (PIERCE). The optical density at 450 nm derived from HRP catalyzed TMB was measured with an ARVO multilabel counter. (Wallac Berthold Japan). The percent inhibition of activity was calculated relative to blank control wells. The concentration of test compound that inhibits 50% of activity (IC50) was interpolated using nonlinear regression (Levernberg-Marquardt) and the equation, y=Vmax (1−x/(K+x))+Y2, where “K” was equal to the IC50. The IC50 values were converted to pIC50 values, i.e., −log IC50 in Molar concentration.
(In general: In an ELISA, binding on a coated surface is turned into a signal by an enzyme label.)

Assay [2] has as its system Human umbilical cord endothelial cells (HUVEC). The assay is described as follows: VEGF-driven cellular proliferation assay: BrdU incorporation assay (VEGF-C). The settings on record: for pIC50: Homo sapiens. The assay is classed as cell-based. Also noted: key to VEGF-C: + = pIC50 of 5.0–6.0; ++ = pIC50 of 6.0–7.0; +++ = pIC50 of > 7.0; − = a negative or inconclusive result. The protocol:
VFGF-driven Cellular Proliferation Assay: BrdU Incorporation Assay (VEGF-C)
Human umbilical cord endothelial cells (HUVEC, Clonetics, CC2519) were passaged in Type I collagen-coated 100-mm petridishes in EGM-MV medium (Clonetics, CC3125) at 37° C. in a humidified 5% CO2, 95% air incubator. (HUVEC passaged more than 6 times in vitro were discarded and not subjected to assaying.) The cells were harvested using trypsin/EDTA, counted using a haemocytometer and plated at 5000 cells/well in a Type I-collagen coated 96-well plate (Becton Dickinson, 354407) in M199 medium (Gibco BRL, 12340-030) containing 5% FBS (Hyclone, A 1115-L) and gentamicin (at 50 μg/ml, Gibco BRL). After incubation overnight at 37° C., the media were replaced with 100 μl of M199 serum-free medium containing compounds at various concentrations with 0.6% DMSO and gentamicin. The compounds were diluted in serum-free M199 medium from 10 mM stock solutions prepared in 100% DMSO. After a 30 min incubation at 37° C., the cells were fed with 100 μl of serum-free M199 medium containing gentamicin, 0.2% culture-grade bovine serum albumin (BSA, Sigma A1993) and 20 ng/ml of VEGF (R&D systems, 293-VE) or 0.6 ng/ml of basic FGF (R&D systems, 233-FB), and cultured at 37° C. for another 24 h. The cells were pulsed with bromodeoxyuridine (BrdU at 10 μM in serum-free M199) at 37° C. for an additional 24 h. The incorporation of BrdU into the proliferating HUVEC were analyzed using BrdU Cell Proliferation ELISA (Roche Molecular Biochemicals, 1647229) according to the manufacturer's protocols. The optical density at 450 nm was measured with a multilabel counter (ARVO SX, Wallac). The percent inhibition of cell growth was calculated relative to blank control wells. The concentration of test compound that inhibits 50% of cell growth (IC50) was interpolated using nonlinear regression (Levernberg-Marquardt) and the equation, y=Vmax (1−x/(K+x))+Y2, where “K” was equal to the IC50. The IC50, values were converted to pIC50 values, i.e., −log IC50 in Molar concentration.

Assay [3] has as its target T3, GST-TIE2 (intracellular domains of human TIE2) (Homo sapiens, UniProt Q02763).
T3 construct: made in house
Put plainly: TIE-2 enzyme assay (TIE2-E), LANCE method. The assay is classed as biochemical. The settings on record: 80 uM ATP. The protocol: TIE-2Enzyme Assay (TIE2-E)
The TIE-2 enzyme assay used the LANCE method (Wallac) and GST-TIE2, baculovirus expressed recombinant constructs of the intracellular domains of human TIE2 (amino acids 762–1104, GenBank Accession # L06139) tagged by GST). […] This peptide phosphorylation was detected using the following procedure: for enzyme preactivation, GST-TIE2 was incubated for 30 mins at room temperature with 2 mM ATP, 5 mM MgCl2 and 12.5 mM DTT in 22.5 mM HEPES buffer (pH7.4). Preactivated GST-TIE2 was incubated for 30 mins at room temperature in 96 well plates with 1 μM D1-15 peptide, 80 uM ATP, 10 mM MgCl2, 0.1 mg/ml BSA and the test compound (diluted from a 10 mM stock in DMSO, final DMSO concentration was 2.4%) in 1 mM HEPES (pH7.4). The reaction was stopped by the addition of EDTA (final concentration 45 mM). Streptavidin linked-APC (allophycocyanin, Molecular Probe) and Europium-labeled anti-phosphorylated tyrosine antibody (Wallac) were then added at the final concentration of 17 μg/well and 2.1 μg/well, respectively. The APC signal was measured using an ARVO multilabel counter. (Wallac Berthold Japan). The percent inhibition of activity was calculated relative to blank control wells. The concentration of test compound that inhibits 50% of activity (IC50) was interpolated using nonlinear regression (Levernberg-Marquardt) and the equation, y=Vmax (1−x/(K+x))+Y2, where “K” was equal to the IC50. The IC50 values were converted to pIC50 values, i.e., −log IC50 in Molar concentration.

T2 sequence (Q02763 770-1124 limits assumed, change not shown): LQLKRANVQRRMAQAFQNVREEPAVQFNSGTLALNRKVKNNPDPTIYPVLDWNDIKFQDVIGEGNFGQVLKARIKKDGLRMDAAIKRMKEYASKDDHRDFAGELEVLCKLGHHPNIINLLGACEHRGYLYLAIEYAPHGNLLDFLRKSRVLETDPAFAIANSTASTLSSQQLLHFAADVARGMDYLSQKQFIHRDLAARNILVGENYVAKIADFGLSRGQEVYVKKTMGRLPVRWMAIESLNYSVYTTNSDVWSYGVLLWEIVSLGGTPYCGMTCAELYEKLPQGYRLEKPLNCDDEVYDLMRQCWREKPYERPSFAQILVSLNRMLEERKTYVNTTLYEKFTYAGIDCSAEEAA
T3 sequence (Q02763 762-1104): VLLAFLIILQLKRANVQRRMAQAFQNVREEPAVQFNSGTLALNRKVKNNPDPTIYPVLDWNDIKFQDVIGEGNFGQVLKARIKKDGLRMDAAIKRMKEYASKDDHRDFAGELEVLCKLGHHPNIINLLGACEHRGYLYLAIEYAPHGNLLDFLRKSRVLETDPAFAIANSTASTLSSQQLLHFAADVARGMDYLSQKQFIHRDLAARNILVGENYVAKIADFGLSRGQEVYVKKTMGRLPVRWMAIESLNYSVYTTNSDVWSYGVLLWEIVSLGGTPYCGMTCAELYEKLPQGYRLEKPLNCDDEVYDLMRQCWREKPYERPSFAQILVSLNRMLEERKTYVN

As to `O=C(Nc1ccc(Oc2ccc3[nH]c(NC(=O)C4CCCO4)nc3c2)cc1)Nc1cc(C(F)(F)F)ccc1F` (stereo not drawn) [Example 94], the pIC50 – broadly, the negative decadic logarithm of the IC50, by convention in mol/L – against GST-VEGFR2 was greater than 7.00; in assay [1], greater than 7.00; in assay [2], 5.00 to 6.00; in assay [3], greater than 7.00.
Take `COC(=O)Nc1nc2cc(Oc3ccc(NC(=O)Nc4cc(OC)ccc4OC)cc3)ccc2[nH]1` [Example 42, Methyl N-(5-(4-((2,5-dimethoxyphenyl)aminocarbonylamino)phenoxy)-1H-benzimidazol-2-yl)carbamate]: the pIC50 was greater than 7.00 against GST-VEGFR2, greater than 7.00 in assay [1], 6.00 to 7.00 in assay [2] and greater than 7.00 in assay [3].
Consider `COC(=O)Nc1nc2ccc(Oc3ccc(NC(=O)Nc4cc(C(F)(F)F)ccc4Cl)cc3)cc2s1` [Example 76, Methyl N-(6-(4-((2-chloro-5-(trifluoromethyl)phenyl)aminocarbonylamino)phenoxy)benzthiazol-2-yl)carbamate], for which the negative logarithm of the IC50 (pIC50) in assay [1] and in assay [3] was greater than 7.00 throughout. In addition, the VEGF-C entry in assay [2] was “−”.
On to `COCCOCC(=O)Nc1nc2ccc(Oc3ccc(NC(=O)Nc4cc(C(F)(F)F)ccc4F)cc3)cc2[nH]1` [Example 34], for which the pIC50 in assay [1] and in assay [3] was greater than 7.00 in each case. For the same molecule, in assay [2], the VEGF-C result was “−”.
Take `O=C(Nc1ccc(Oc2ccc3[nH]c(NC(=O)c4ccc(-n5ccnc5)cc4)nc3c2)cc1)Nc1cc(C(F)(F)F)ccc1F` [Example 91, N-(5-(4-((2-Fluoro-5-(trifluoromethyl)phenyl)aminocarbonylamino)phenoxy)-1H-benzimidazol-2-yl)-4-(1H-imidazol-1-yl)benzamide]: the pIC50 (against GST-VEGFR2; in assay [1]; in assay [3]) was greater than 7.00 each time. The VEGF-C entry in assay [2] is reported as “−”.
`CN1CCN(CC(=O)Nc2nc3ccc(Oc4ccc(NC(=O)Nc5cc(C(F)(F)F)ccc5F)cc4)cc3[nH]2)CC1` [Example 101, N-(5-(4-((2-Fluoro-5-(trifluoromethyl)phenyl)aminocarbonylamino)phenoxy)-1H-benzimidazol-2-yl)(4-methyl-1-piperazino)acetamide]: the pIC50 in assay [1], in assay [2] and in assay [3] was greater than 7.00 in each case.
As for `CS(=O)(=O)n1c(N)nc2ccc(Oc3ccc(NC(=O)Nc4cc(C(F)(F)F)ccc4F)cc3)cc21` [Example 23], the pIC50 was greater than 7.00 in assay [1], 6.00 to 7.00 in assay [2] and greater than 7.00 in assay [3].
`COC(=O)Nc1nc2cc(Oc3ccc(NC(=O)Nc4cccc(SC(F)(F)F)c4)cc3)ccc2[nH]1` [Example 41, Methyl N-(5-(4-((3-(trifluoromethylthio)phenyl)aminocarbonylamino)phenoxy)-1H-benzimidazol-2-yl)carbamate]: the pIC50 in assay [1] and in assay [3] was greater than 7.00 in each case. For the same molecule, in assay [2], the VEGF-C entry is “−”.
Consider `CCc1cccc(NC(=O)Nc2ccc(Oc3ccc4[nH]c(NC(=O)OC)nc4c3)cc2)c1` [Example 11, Methyl N-(5-(4-((3-ethylphenyl)aminocarbonylamino)phenoxy)-1H-benzimidazol-2-yl)carbamate], for which the pIC50 in assay [1] was 6.00 to 7.00; in assay [3] it was greater than 7.00. Also, in assay [2], the VEGF-C result is “−”.
Regarding `COC(=O)Nc1nc2ncc(Oc3ccc(NC(=O)Nc4cc(C(F)(F)F)ccc4F)cc3)cc2[nH]1.Cl` [Example 75, Methyl N-(6-(4-((2-fluoro-5-(trifluoromethyl)phenyl)aminocarbonylamino)phenoxy)-3,4-diaza-1H-indole-2-yl)carbamate dihydrochloride], the pIC50 was greater than 7.00 in assay [1] and 6.00 to 7.00 in assay [3]. Also, in assay [2], the VEGF-C result is “−”.
With `O=C(O)CCC(=O)Nc1nc2cc(Oc3ccc(NC(=O)Nc4cc(C(F)(F)F)ccc4F)cc3)ccc2[nH]1` [Example 32, 3-(N-(5-(4-((2-Fluoro-5-(trifluoromethyl)phenyl)aminocarbonylamino)phenoxy)-1H-benzimidazol-2-yl)carbamoyl)propionic acid], the pIC50 in assay [1] is 6.00 to 7.00; in assay [2], 5.00 to 6.00; in assay [3] it was greater than 7.00.
Regarding `CC(=O)Nc1nc2cc(Oc3ccc(NC(=O)Nc4cc(C(F)(F)F)ccc4F)nc3)ccc2[nH]1` [Example 36, N-(5-(2-((2-fluoro-5-(trifluoromethyl)phenyl)aminocarbonylamino)-5-pyridyloxy)-1H-benzimidazol-2-yl)acetamide dihydrochloride], the pIC50 in assay [1] and in assay [3] was greater than 7.00 throughout. Besides, in assay [2], the VEGF-C result is on record as “−”.
`COC(=O)Nc1nc2cc(Oc3cccc(NC(=O)Nc4cccc(C(F)(F)F)c4)c3)ccc2[nH]1` [Example 20, Methyl N-(5-(3-((3-(trifluoromethyl)phenyl)aminocarbonylamino)phenoxy)-1H-benzimidazol-2-yl)carbamate]: the pIC50 is 6.00 to 7.00 in assay [1], greater than 7.00 in assay [2] and greater than 7.00 in assay [3].
Take `COC(=O)Nc1nc2cc(Oc3ccc(NC(=O)Nc4cccc(C(C)(C)C)c4)cc3)ccc2[nH]1` [Example 21, Methyl N-(5-(4-((3-t-butylphenyl)aminocarbonylamino)phenoxy)-1H-benzimidazol-2-yl)carbamate]: the negative logarithm of the IC50 (pIC50) in assay [1] and in assay [3] was greater than 7.00 throughout. In addition, the VEGF-C entry in assay [2] was “−”.
For the molecule `COC(=O)Nc1nc2cc(Oc3ccc(NC(=O)Nc4cccc(Br)c4)cc3)ccc2[nH]1` [Example 40, Methyl N-(5-(4-((3-bromophenyl)aminocarbonylamino)phenoxy)-1H-benzimidazol-2-yl)carbamate], the pIC50 in assay [1] and in assay [3] was greater than 7.00 in each case. Also, the VEGF-C entry in assay [2] is “−”.
